# From PubChem BioAssay (NCI)
#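 A five-concentration, 48-hour dose response in 96-well plates underlies each endpoint, interpolated linearly between surrounding concentrations. GI50: concentration for 50% inhibition of growth. TGI marks complete inhibition of growth.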
# Legend:
# Test in all cases: NCI anticancer screen, dose series, 48 h
# HT29 colon = system: HT29 colon
# A549 NSCLC = system: A549 NSCLC
# SNB-75 CNS = system: SNB-75 CNS
# OVCAR-8 ovarian = system: OVCAR-8 ovarian
# IGROV1 ovarian = system: IGROV1 ovarian
# T-47D breast = system: T-47D breast
# TK-10 renal = system: TK-10 renal
# HOP-62 NSCLC = system: HOP-62 NSCLC
# MOLT-4 leukemia = system: MOLT-4 leukemia
# 786-0 renal = system: 786-0 renal
# OVCAR-5 ovarian = system: OVCAR-5 ovarian
# NCI-H522 lung = system: NCI-H522 lung
# U251 CNS = system: U251 CNS
# K-562 leukemia = system: K-562 leukemia
# UACC-257 melanoma = system: UACC-257 melanoma
# NCI/ADR-RES ovarian = system: NCI/ADR-RES ovarian
# DU-145 prostate = system: DU-145 prostate
# SF-539 CNS = system: SF-539 CNS
# A498 renal = system: A498 renal
# CAKI-1 renal = system: CAKI-1 renal
# OVCAR-3 ovarian = system: OVCAR-3 ovarian
# HCT-15 colon = system: HCT-15 colon
# UACC-62 melanoma = system: UACC-62 melanoma
# EKVX NSCLC = system: EKVX NSCLC
# SK-MEL-5 melanoma = system: SK-MEL-5 melanoma
# SK-MEL-28 melanoma = system: SK-MEL-28 melanoma
# M14 melanoma = system: M14 melanoma
# MDA-MB-435 = system: MDA-MB-435
# SR leukemia = system: SR leukemia
# SNB-19 CNS = system: SNB-19 CNS
# UO-31 renal = system: UO-31 renal
# HCC-2998 colon = system: HCC-2998 colon
# COLO 205 colon = system: COLO 205 colon
# SF-295 CNS = system: SF-295 CNS
# LOX IMVI melanoma = system: LOX IMVI melanoma
# NCI-H460 lung = system: NCI-H460 lung
# MALME-3M melanoma = system: MALME-3M melanoma
# KM12 colon = system: KM12 colon
# HL-60(TB) leukemia = system: HL-60(TB) leukemia
# OVCAR-4 ovarian = system: OVCAR-4 ovarian
# RPMI-8226 leukemia = system: RPMI-8226 leukemia
# MDA-MB-231 breast = system: MDA-MB-231 breast
# BT-549 breast = system: BT-549 breast
# HOP-92 NSCLC = system: HOP-92 NSCLC
# ACHN renal = system: ACHN renal
# SK-MEL-2 melanoma = system: SK-MEL-2 melanoma
# NCI-H23 lung = system: NCI-H23 lung
# PC-3 prostate = system: PC-3 prostate
# NCI-H226 lung = system: NCI-H226 lung
# SN12C renal = system: SN12C renal
# CCRF-CEM leukemia = system: CCRF-CEM leukemia
# RXF 393 renal = system: RXF 393 renal
# HS 578T breast = system: HS 578T breast
# SF-268 CNS = system: SF-268 CNS
# HCT-116 colon = system: HCT-116 colon
# SW-620 colon = system: SW-620 colon
# SK-OV-3 ovarian = system: SK-OV-3 ovarian
# MCF7 breast = system: MCF7 breast
smiles,measurement,setting,value
COC(=O)[C@]12CC[C@@H](C)[C@H](C)[C@@H]1C1=CC[C@@H]3[C@@]4(C)C(C=O)=C[C@@](C)(COC(=O)/C=C/c5ccccc5)[C@@H]4[C@H](O)C[C@@]3(C)[C@]1(C)CC2,GI50,HT29 colon,3.1 µM
same,TGI,HT29 colon,10.2 µM
same,GI50,A549 NSCLC,3.73 µM
same,TGI,A549 NSCLC,22 µM
same,GI50,SNB-75 CNS,3.37 µM
same,TGI,SNB-75 CNS,31.5 µM
same,GI50,OVCAR-8 ovarian,3.98 µM
same,TGI,OVCAR-8 ovarian,30.3 µM
same,GI50,IGROV1 ovarian,4.34 µM
same,TGI,IGROV1 ovarian,66.4 µM
same,GI50,T-47D breast,4.4 µM
same,TGI,T-47D breast,84.1 µM
same,GI50,TK-10 renal,6.74 µM
same,TGI,TK-10 renal,39.3 µM
same,GI50,HOP-62 NSCLC,9.4 µM
same,TGI,HOP-62 NSCLC,32.1 µM
same,GI50,MOLT-4 leukemia,2.09 µM
same,TGI,MOLT-4 leukemia,7.36 µM
same,GI50,786-0 renal,5.01 µM
same,TGI,786-0 renal,42.7 µM
same,GI50,OVCAR-5 ovarian,3.08 µM
same,TGI,OVCAR-5 ovarian,13.6 µM
same,GI50,NCI-H522 lung,4.47 µM
same,TGI,NCI-H522 lung,17.4 µM
same,GI50,U251 CNS,3.75 µM
same,TGI,U251 CNS,16.2 µM
same,GI50,K-562 leukemia,3.53 µM
same,TGI,K-562 leukemia,> 100 µM
same,GI50,UACC-257 melanoma,2.36 µM
same,TGI,UACC-257 melanoma,6.82 µM
same,GI50,NCI/ADR-RES ovarian,3.64 µM
same,TGI,NCI/ADR-RES ovarian,19.1 µM
same,GI50,DU-145 prostate,4.96 µM
same,TGI,DU-145 prostate,25.9 µM
same,GI50,SF-539 CNS,3.78 µM
same,TGI,SF-539 CNS,17.5 µM
same,GI50,A498 renal,4.8 µM
same,TGI,A498 renal,23.7 µM
same,GI50,CAKI-1 renal,3.56 µM
same,TGI,CAKI-1 renal,> 100 µM
same,GI50,OVCAR-3 ovarian,2.35 µM
same,TGI,OVCAR-3 ovarian,5.53 µM
same,GI50,HCT-15 colon,2.2 µM
same,TGI,HCT-15 colon,5.36 µM
same,GI50,UACC-62 melanoma,2.49 µM
same,TGI,UACC-62 melanoma,8.48 µM
same,GI50,EKVX NSCLC,2.86 µM
same,TGI,EKVX NSCLC,11.5 µM
same,GI50,SK-MEL-5 melanoma,2.2 µM
same,TGI,SK-MEL-5 melanoma,5.92 µM
same,GI50,SK-MEL-28 melanoma,2.7 µM
same,TGI,SK-MEL-28 melanoma,7.63 µM
same,GI50,M14 melanoma,3.33 µM
same,TGI,M14 melanoma,17.3 µM
same,GI50,MDA-MB-435,3.04 µM
same,TGI,MDA-MB-435,10.3 µM
same,GI50,SR leukemia,2.29 µM
same,TGI,SR leukemia,6.76 µM
same,GI50,SNB-19 CNS,6.47 µM
same,TGI,SNB-19 CNS,> 100 µM
same,GI50,UO-31 renal,3.28 µM
same,TGI,UO-31 renal,20.2 µM
same,GI50,HCC-2998 colon,3.04 µM
same,TGI,HCC-2998 colon,7.75 µM
same,GI50,COLO 205 colon,2.3 µM
same,TGI,COLO 205 colon,5.33 µM
same,GI50,SF-295 CNS,2.06 µM
same,TGI,SF-295 CNS,5.78 µM
same,GI50,LOX IMVI melanoma,1.77 µM
same,TGI,LOX IMVI melanoma,3.66 µM
same,GI50,NCI-H460 lung,2.96 µM
same,TGI,NCI-H460 lung,10.2 µM
same,GI50,MALME-3M melanoma,1.99 µM
same,TGI,MALME-3M melanoma,5.14 µM
same,GI50,KM12 colon,3.58 µM
same,TGI,KM12 colon,19.4 µM
same,GI50,HL-60(TB) leukemia,2.48 µM
same,TGI,HL-60(TB) leukemia,5.97 µM
same,GI50,OVCAR-4 ovarian,3.16 µM
same,TGI,OVCAR-4 ovarian,> 100 µM
same,GI50,RPMI-8226 leukemia,1.59 µM
same,TGI,RPMI-8226 leukemia,5.73 µM
same,GI50,MDA-MB-231 breast,4.36 µM
same,TGI,MDA-MB-231 breast,27.2 µM
same,GI50,BT-549 breast,6.05 µM
same,TGI,BT-549 breast,63.9 µM
same,GI50,HOP-92 NSCLC,2.19 µM
same,TGI,HOP-92 NSCLC,9.1 µM
same,GI50,ACHN renal,2.76 µM
same,TGI,ACHN renal,9.95 µM
same,GI50,SK-MEL-2 melanoma,3.21 µM
same,TGI,SK-MEL-2 melanoma,12.8 µM
same,GI50,NCI-H23 lung,2.99 µM
same,TGI,NCI-H23 lung,15.1 µM
same,GI50,PC-3 prostate,2.22 µM
same,TGI,PC-3 prostate,> 100 µM
same,GI50,NCI-H226 lung,2.36 µM
same,TGI,NCI-H226 lung,9.66 µM
same,GI50,SN12C renal,3.8 µM
same,TGI,SN12C renal,26.5 µM
same,GI50,CCRF-CEM leukemia,2.39 µM
same,TGI,CCRF-CEM leukemia,> 100 µM
same,GI50,RXF 393 renal,1.79 µM
same,TGI,RXF 393 renal,4.45 µM
same,GI50,HS 578T breast,3.72 µM
same,TGI,HS 578T breast,33.8 µM
same,GI50,SF-268 CNS,3.43 µM
same,TGI,SF-268 CNS,48.3 µM
same,GI50,HCT-116 colon,3.06 µM
same,TGI,HCT-116 colon,13.7 µM
same,GI50,SW-620 colon,3.68 µM
same,TGI,SW-620 colon,18.8 µM
same,GI50,SK-OV-3 ovarian,16.5 µM
same,TGI,SK-OV-3 ovarian,97.9 µM
same,GI50,MCF7 breast,2.37 µM
same,TGI,MCF7 breast,11.3 µM
